Where two headings read alike, the source gives them in different places.

These results are taken from patent US20250313900A1, “COMPOSITIONS AND THERAPEUTIC AGENTS FOR MODULATING INFLAMMATORY RESPONSES ON BOTH TUMOR AND IMMUNE CELLS” (THE METHODIST HOSPITAL, priority 2022, published 2025).

The subject of experiment [1] is vinculin. Put plainly: Western blots of vinculin expression, 4T1 tumor model. Format: cell-based. The following applies: CMTM4 knockout, 1 mm, 0, 3, 6 and 24 hours. On the procedure: 1 mm of C10H14O3 (4-Ethoxy-3-methoxybenzyl alcohol)(28A), C9H16N2O6 (Tetrahydrouridine)(28B), or C10H14O3 (5-tert-butyl-2-methyl-3-furoic acid)(28C) was administered to control mice or CMTM4 knockouts and expression measured after 0, 3, 6, and 24 hours.
In general terms: A western blot detects proteins with antibodies after separation by electrophoresis.

Experiment [2] relates to IL-6. Put plainly: IL-6 production (compound screening). Format: cell-based. The source says: (§1) The initial screening was followed by the following assessments: 1) MHC 11 assay by high-throughput flow cytometry. 2) IL-6 production. 3) NF-kB promoter activity using CMTM4-expressing NF-kB/secreted embryonic alkaline phosphatase (SEAP) reporter stable cell lines using both LLC and 4T1 cells. 4) Inhibition of EGF-mediated G-CSF secretion from tumor cells. 5) Test glycolysis (FIG. 13).

The subject of experiment [3] is glycolysis. Put plainly: Test glycolysis (compound screening). Format: cell-based.
Text: as §1

For experiment [4], the system named is p-Akt/p-mTOR. The experiment in a line: p-Akt/p-mTOR (compound screening). Format: cell-based. On the procedure: (§2) Protein samples from cells were separated on sodium dodecyl sulfate (SDS)-polyacrylamide gels and transferred to PVDF membranes. The membranes were blocked in 4% skim milk solution, incubated with the appropriate antibody, and subsequently incubated with a secondary antibody conjugated with horseradish peroxidase. The antibodies for p-NF-κBp65, NF-κBp65. EGFR, PTEN, Akt, p-Akt, mTOR, p-mTOR, S6, p-S6, Rab4, Rab5a, Rab11, Tubulin, actin, vinculin, and CMTM4 were purchased from Cell Signaling Technology, Inc. (Beverly, MA) and the antibody for Rab21 was purchased from Santa Cruz Biotechnology. The immunoreactive bands were visualized using the ECL system (Thermo Scientific). Control and CMTM4 KD cell lysates were analyzed using the proteome profiler mouse phospho-receptor tyrosine kinase array kit (R&D Systems) following the manufacturer's instructions. For immunoprecipitation, Dynabeads His-Tag isolation and pulldown kit (Life Technologies) was used. The pull-down samples were subjected to immunoblot assays.

Experiment [5] concerns the target T1, CMTM4 (Mus musculus, UniProt Q8CJ61).
T1 construct: endogenous in cells; LLC and 4T1 are the only lines named in the screen
Put plainly: CMTM4 level (compound screening). Format: cell-based. Here is the method: as §2

For experiment [6], the system named is CMTM4. The experiment in a line: Western blot of CMTM4 protein in HCC827 CT cells. Format: cell-based, human. The following applies: 1 μM.
The test system of experiment [7] is MHC II. Put plainly: MHC II assay by high-throughput flow cytometry (compound screening). Format: cell-based.
Text: as §1
On the technique in general: In flow cytometry, cells or beads pass a laser one at a time.

Experiment [8] has as its system NF-kB promoter activity in 4T1 cells. The experiment in a line: NF-kB promoter activity, CMTM4-expressing NF-kB/SEAP reporter stable 4T1 cells. Format: cell-based, murine.
Text: as §1

Experiment [9] deals with NF-kB promoter activity in LLC cells. Put plainly: NF-kB promoter activity, CMTM4-expressing NF-kB/SEAP reporter stable LLC cells. Format: cell-based, murine.
Text: as §1

Experiment [10] concerns G-CSF. The experiment in a line: Inhibition of EGF-mediated G-CSF secretion from tumor cells. Format: cell-based. On the procedure: as §1
Secretion of G-CSF was determined using ELISA kits according to the manufacturer's instructions (Life Technologies).

T1 sequence (Q8CJ61 whole entry): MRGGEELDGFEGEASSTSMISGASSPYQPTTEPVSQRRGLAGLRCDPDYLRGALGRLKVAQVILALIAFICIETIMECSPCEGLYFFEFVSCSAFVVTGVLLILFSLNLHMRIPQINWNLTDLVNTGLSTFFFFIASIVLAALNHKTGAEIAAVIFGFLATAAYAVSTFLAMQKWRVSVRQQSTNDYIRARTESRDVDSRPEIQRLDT

As for `CCOc1ccc(CO)cc1OC` [4-Ethoxy-3-methoxybenzyl alcohol], the vinculin expression entry in experiment [1] was “significantly increased”.
Consider `Cc1oc(C(C)(C)C)cc1C(=O)O` [5-tert-butyl-2-methyl-3-furoic acid], for which, in experiment [1], the vinculin expression result is reported as “significantly increased”.
Take `C/C=C/C(=O)O` [C4H6O2, CROTONIC ACID, CROTONIC ACID]: in experiment [2], the “IL-6 (%)” value was 4.438%. Besides, the Glycolysis result in experiment [3] is given as “Inhibit”. Moreover, the p-Akt/p-mTOR result in [4] is given as “Decrease”. Further, the CMTM4 entry in experiment [5] is listed as “No difference”.
For `O=C1NC(O)CCN1[C@@H]1O[C@H](CO)[C@@H](O)[C@H]1O` (stereo partly drawn) [C9H16N2O6, Tetrahydrouridine, Tetrahydrouridine], the “IL-6 (%)” value in experiment [2] is −0.1232%. Also, the Glycolysis entry in experiment [3] is reported as “Inhibit”. Also, in experiment [4], the p-Akt/p-mTOR result is given as “Decrease”. In [5], the CMTM4 result is given as “No difference”. Moreover, the CMTM4 protein expression result in experiment [6] is on record as “decreased”. In [1], the vinculin expression entry is reported as “significantly increased”.
`OC[C@H]1O[C@@H](n2cnc3c(O)ncnc32)[C@H](O)[C@@H]1O` [C10H12N4O5, Inosine, Inosine]: the “IL-6 (%)” value in [2] is −9.437%. Besides, the Glycolysis result in experiment [3] is “Inhibit”. The CMTM4 result in [5] is given as “No difference”. In addition, the CMTM4 protein expression entry in experiment [6] is “decreased”.
As for `Cc1ccccc1OCC(O)CO` (stereo not drawn) [C10H14O3, Mephenesin, Mephenesin], the “IL-6 (%)” value in experiment [2] is recorded as 0.5625%. For the same compound, the Glycolysis entry in experiment [3] is listed as “Inhibit”. For the same compound, in experiment [4], the p-Akt/p-mTOR result is “Decrease”. Also, the CMTM4 entry in experiment [5] was “No difference”.
Turning to `N#Cc1cn([C@@H]2O[C@H](CO)[C@@H](O)[C@H]2O)c2ncnc(N)c12` [C12H13N5O4, Toyocamycin, Toyocamycin], the “IL-6 (%)” value in [2] is listed as −3.717%. Also, in [3], the Glycolysis result was “Inhibit”. Moreover, in experiment [4], the p-Akt/p-mTOR result is recorded as “Decrease”. In experiment [5], the CMTM4 result is recorded as “No difference”.
For the compound `C[C@H]1O[C@H](O[C@H]2[C@H](O)[C@@H](O)[C@@H](O)[C@H](O)[C@@H]2O)[C@@H](N)C[C@@H]1NC(=N)C(=O)O` [C14H25N3O9, Kasugamycin, Kasugamycin], the “IL-6 (%)” value in [2] was determined as 1.934%. For the same compound, the Glycolysis entry in [3] is reported as “Inhibit”. Moreover, in experiment [7], the “MHC II (%)” value stood at 483.4%. Also, in experiment [4], the p-Akt/p-mTOR result is recorded as “Decrease”. For the same compound, the “NF-kB (%)-4T1” value in experiment [8] came out at 44.19%. For the same compound, in experiment [5], the CMTM4 entry is on record as “No difference”. The “NF-kB (%)-LLC” value in [9] is 46.83%. Moreover, the “G-CSF (%)” value in experiment [10] amounted to 66.41%.
For `COc1cc(-c2oc3cc(O)cc(O)c3c(=O)c2O)ccc1O` [C16H12O7, Isorhamnctin, Isorhamnetin], in experiment [2], the “IL-6 (%)” value was −11.581%. Moreover, in experiment [3], the Glycolysis result is listed as “Inhibit”. The p-Akt/p-mTOR entry in [4] is given as “Decrease”. Moreover, in [5], the CMTM4 result is “No difference”.
For `COc1cc(O)c2c(=O)c(O)c(-c3ccc(O)c(O)c3)oc2c1` [C16H12O7, Rhamnetin, Rhamnetin], in that order: −5.243%, “Inhibit”, “Decrease” and “No difference”.
For the compound `CO[C@H]1Nc2c(ccc(C)c2O)C(=O)N2C=C(/C=C/C(N)=O)C[C@@H]12` [C17H19N3O4, Anthramycin methyl ether, Anthramycin methyl ether], in experiment [2], the “IL-6 (%)” value is listed as −1.982%. In experiment [3], the Glycolysis entry is reported as “Inhibit”. The p-Akt/p-mTOR entry in experiment [4] is “Decrease”. Further, in experiment [5], the CMTM4 result is “No difference”.
For `O=C(/C=C/c1ccc(O)c(O)c1)O[C@H](Cc1ccc(O)c(O)c1)C(=O)O` [C18H16O8, Rosmarinic Acid, Rosmarinic Acid], in that order: −0.1232%, “Inhibit”, “Decrease” and “No difference”.
With `CCc1cccc2c1c(O)c(C(=O)N(CC)c1ccccc1)c(=O)n2C` [C21H22N2O3, Paquinimod, Paquinimod], in [2], the “IL-6 (%)” value was −0.809%. Besides, the Glycolysis result in experiment [3] is listed as “Inhibit”. Also, the “MHC II (%)” value in [7] turned out to be 520.6%. For the same compound, the p-Akt/p-mTOR result in experiment [4] was “Decrease”. Besides, the “NF-kB (%)-4T1” value in experiment [8] (4T1 reporter cells) stood at 46.87%. Also, the CMTM4 result in experiment [5] is listed as “No difference”. Besides, the “NF-kB (%)-LLC” value in experiment [9] (LLC reporter cells) worked out at 32.6%. The “G-CSF (%)” value in experiment [10] (EGF-mediated secretion) was 3.464%.
For `CC[C@]12CCCN3CCc4c(n(c5ccccc45)[C@@](O)(C(=O)OC)C1)[C@@H]32` [C21H26N2O3, Vincamine, Vincamine], in experiment [2], the “IL-6 (%)” value came to 5.815%. Further, the Glycolysis entry in experiment [3] was “Inhibit”. Further, the p-Akt/p-mTOR entry in experiment [4] was “No difference”. Moreover, the CMTM4 result in experiment [5] is reported as “Decrease”.
`CCCCC1CCCCCCc2[nH]c(/C=C3\N=C(c4ccc[nH]4)C=C3OC)cc21.Cl` (stereo not drawn) [C25H33N3O•ClH, Butylcycloheptylprodiginine Hydrochloride]: the “IL-6 (%)” value in experiment [2] is −6.005%. In experiment [3], the Glycolysis entry is “Inhibit”. Further, the “MHC II (%)” value in experiment [7] turned out to be 426.2%. Further, the “NF-kB (%)-4T1” value in [8] (4T1 reporter cells) is 45.8%. Besides, the CMTM4 result in [5] was “Decrease”. Moreover, the “NF-kB (%)-LLC” value in [9] (LLC reporter cells) turned out to be 53.61%. Further, in experiment [10] (EGF-mediated secretion), the “G-CSF (%)” value was determined as 4.236%.
As to `C[C@@H]1C[C@@H]2CCCC(O)=C2C(=O)O1` [Compound C10H14O3, Ramulosin], in experiment [2], the “IL-6 (%)” value is given as −0.1232%. Moreover, the Glycolysis result in experiment [3] is reported as “Inhibit”. Moreover, the “MHC II (%)” value in experiment [7] is reported as 340.5%. Moreover, the p-Akt/p-mTOR result in [4] is “Decrease”. Moreover, the “NF-kB (%)-4T1” value in experiment [8] (4T1 reporter cells) came out at 42.04%. Also, the CMTM4 result in experiment [5] is “No difference”. Further, the “NF-kB (%)-LLC” value in [9] (LLC reporter cells) worked out at 34.35%. Further, the “G-CSF (%)” value in experiment [10] (EGF-mediated secretion) worked out at 3.85%.
Take `Cc1c2ccncc2c(C)c2c1[nH]c1ccccc12` [Ellipticine]: the “IL-6 (%)” value in experiment [2] was −15.7288%. Moreover, the Glycolysis result in experiment [3] was “Inhibit”. In [4], the p-Akt/p-mTOR result is given as “Decrease”. Moreover, in experiment [5], the CMTM4 entry is given as “No difference”. Also, the CMTM4 protein expression entry in experiment [6] is “decreased”.
Take `COc1ccc2c3c([nH]c2c1)[C@H](C=C(C)C)N1C(=O)[C@@H]2CCCN2C(=O)[C@@H]1C3` [Fumitremorgin C]: the “IL-6 (%)” value in [2] is on record as 10.85%. Besides, the Glycolysis result in experiment [3] was “Inhibit”. For the same compound, the “MHC II (%)” value in [7] worked out at 5071%. Moreover, the p-Akt/p-mTOR entry in experiment [4] is “Decrease”. Besides, the “NF-kB (%)-4T1” value in experiment [8] came out at 49.73%. The CMTM4 entry in [5] is on record as “No difference”. Also, in [9], the “NF-kB (%)-LLC” value is recorded as 42.89%. Further, the “G-CSF (%)” value in [10] is on record as 6.939%.
For the compound “Lobophorin F [C54H78N2O17, Lobophorin F]”, the “IL-6 (%)” value in experiment [2] is given as −12.2043%. Further, the Glycolysis result in [3] was “Inhibit”. The “MHC II (%)” value in [7] came out at 360.5%. The p-Akt/p-mTOR result in experiment [4] is given as “Decrease”. For the same compound, the “NF-kB (%)-4T1” value in experiment [8] (4T1 reporter cells) was 40.07%. The CMTM4 result in experiment [5] is recorded as “Decrease”. The “NF-kB (%)-LLC” value in experiment [9] (LLC reporter cells) is recorded as 37.64%. For the same compound, the “G-CSF (%)” value in experiment [10] (EGF-mediated secretion) was determined as 1.147%.
